Legend:
glucocorticoid receptor [1] = molecular target: T1, glucocorticoid receptor (Rattus norvegicus, UniProt P06536); test: Glucocorticoid activity bioassay, CC1 cells cotransfected with GRE2-TATA-Luc and glucocorticoid receptor expression plasmid; format: cell-based; set-up: expressed in transfected cells; host or cells: CC1 cells (permanent rat liver cell line), transiently cotransfected with pSTC-rGR and GRE2-TATA-Luc; settings: for corticosteroid (glucocorticoid) activity of corticosterone:BSA derivatives / glucocorticoid activity (luciferase induction): CC1 cells; for corticosteroid (glucocorticoid) activity of corticosterone:BSA derivatives: each 200 nM, various induction times; for glucocorticoid activity (luciferase induction): different concentrations, induction time 24 h
T1 sequence (P06536 1-795): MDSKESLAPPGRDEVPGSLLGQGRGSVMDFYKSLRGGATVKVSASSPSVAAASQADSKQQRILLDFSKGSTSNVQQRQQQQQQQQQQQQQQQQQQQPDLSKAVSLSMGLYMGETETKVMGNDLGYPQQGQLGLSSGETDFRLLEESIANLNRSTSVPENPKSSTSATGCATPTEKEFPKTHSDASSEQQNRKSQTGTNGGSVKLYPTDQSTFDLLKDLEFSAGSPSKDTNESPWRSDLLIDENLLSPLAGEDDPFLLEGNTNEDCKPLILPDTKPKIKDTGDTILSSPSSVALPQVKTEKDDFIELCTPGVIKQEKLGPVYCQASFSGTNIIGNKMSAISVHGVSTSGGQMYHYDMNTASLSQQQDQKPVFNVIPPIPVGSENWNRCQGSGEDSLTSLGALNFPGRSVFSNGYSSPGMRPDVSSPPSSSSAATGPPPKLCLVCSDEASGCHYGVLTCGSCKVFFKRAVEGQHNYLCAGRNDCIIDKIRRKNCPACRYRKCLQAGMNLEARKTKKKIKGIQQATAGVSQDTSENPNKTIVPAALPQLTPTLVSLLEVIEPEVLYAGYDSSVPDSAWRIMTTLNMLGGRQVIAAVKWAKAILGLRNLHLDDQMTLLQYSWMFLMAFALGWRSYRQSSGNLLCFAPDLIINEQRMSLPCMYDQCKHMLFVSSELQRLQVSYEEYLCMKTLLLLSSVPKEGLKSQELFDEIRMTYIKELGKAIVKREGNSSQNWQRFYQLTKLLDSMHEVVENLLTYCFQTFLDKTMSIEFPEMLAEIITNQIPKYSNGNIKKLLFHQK
Experimental: These cell lines contain endogenous glucocorticoid receptors. Here, steroid concentration—in this case corticosterone concentration—determines the extent of glucocorticoid activity. […] Induction time: 24 h (see also example 12).
(§1) Thus, the following examples always concern transit ntly cotransfected CC1or MH 3924 cell.

glucocorticoid receptor [2] = molecular target: T1, glucocorticoid receptor
Experimental: These cell lines contain endogenous glucocorticoid receptors. Here, steroid concentration—in this case corticosterone concentration—determines the extent of glucocorticoid activity. […]
as §1
Determination was carried out as in example 7, however, with MH 3924 cells.

androgen receptors (AR) = test: Androgen induced luciferase activity in transfected human genital skin fibroblasts (GSF); format: cell-based; settings: mibolerone 2 nM, 24 h incubation; three Luc constructs; strength depends on origin of fibroblasts
Excerpt: FIG. 1: Androgen induced luciferase activity in human genital skin fibroblasts (GSF) in culture transfected with three different luciferase gen constructs of different androgen sensitivity (“Lu ”): PRE2-Tk-Luc, MMTV-Luc, GRE2-TATA-Luc
The only steroid hormone receptors present in GSF are androgen receptors (AR). Mibolerone, which is used in this experiment, is a synthetic androgen with anabolic effectiveness. […] Obviously, GE2-TATA-Luc is the most sensitive reporter gene construct of the ones used here (for comparison, see also example 10 with a MMTV promotor reporter gene construct as well as FIG. 10).

androgen receptor = androgen receptor (Homo sapiens, UniProt P10275); settings: HeLa cells, induction time 24 h
Excerpt: Transfection method in this experiment was the DOTAP method (Boehringer, Mannheim, Germany).
This androgen receptor free cell line was transiently cotransfected with GRE2-TATA-Luc and a recombinant androgen receptor expression plasmid.

glucocorticoid receptor [3] = molecular target: T1, glucocorticoid receptor; settings: CC1 cells

androgen receptor, sequence (P10275 whole entry): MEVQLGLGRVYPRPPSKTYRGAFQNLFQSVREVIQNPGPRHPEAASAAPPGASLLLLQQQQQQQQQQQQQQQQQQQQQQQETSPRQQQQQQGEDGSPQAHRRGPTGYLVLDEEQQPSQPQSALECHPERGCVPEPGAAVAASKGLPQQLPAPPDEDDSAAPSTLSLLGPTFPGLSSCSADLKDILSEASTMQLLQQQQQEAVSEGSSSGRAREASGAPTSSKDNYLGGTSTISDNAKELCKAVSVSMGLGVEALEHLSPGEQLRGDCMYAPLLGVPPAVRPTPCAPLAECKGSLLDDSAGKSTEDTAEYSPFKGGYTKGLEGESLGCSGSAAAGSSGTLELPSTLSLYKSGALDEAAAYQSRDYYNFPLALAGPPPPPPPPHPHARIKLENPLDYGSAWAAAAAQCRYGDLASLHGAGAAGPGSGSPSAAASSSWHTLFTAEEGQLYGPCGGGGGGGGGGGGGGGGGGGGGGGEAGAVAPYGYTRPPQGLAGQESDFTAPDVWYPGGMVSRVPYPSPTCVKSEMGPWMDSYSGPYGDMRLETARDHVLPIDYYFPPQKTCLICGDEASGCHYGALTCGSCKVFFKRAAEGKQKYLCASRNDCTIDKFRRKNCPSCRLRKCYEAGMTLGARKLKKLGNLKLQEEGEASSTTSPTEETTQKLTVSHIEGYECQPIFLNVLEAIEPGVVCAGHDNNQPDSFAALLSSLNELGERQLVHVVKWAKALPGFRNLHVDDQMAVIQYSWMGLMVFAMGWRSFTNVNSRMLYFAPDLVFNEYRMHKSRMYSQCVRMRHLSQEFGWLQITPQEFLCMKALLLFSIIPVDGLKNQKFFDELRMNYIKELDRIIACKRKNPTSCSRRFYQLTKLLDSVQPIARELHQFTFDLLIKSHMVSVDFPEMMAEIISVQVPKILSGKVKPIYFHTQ

Molecule: 3-CMO-corticosterone:BSA [3:BSA]
- corticosteroid (glucocorticoid) activity of corticosterone:BSA derivatives (glucocorticoid receptor [1]): weak

Molecule: 21-hemisuccinat-corticosterone:BSA
- corticosteroid (glucocorticoid) activity of corticosterone:BSA derivatives (glucocorticoid receptor [1]): strong
- luciferase induction by corticosterone derivative bound to BSA (glucocorticoid activity) (glucocorticoid receptor [1]; cotransfected CC1 cells): luciferase is induced
- concentration at which luciferase induction is easily measurable (glucocorticoid receptor [2]; MH 3924 cells, short term induction of 10 to 30 min (FIG. 4a)): ≤ 50 nM

Molecule: C[C@@H]1CC2=CC(=O)CC[C@@H]2[C@H]2CC[C@@]3(C)[C@@H](CC[C@]3(C)O)[C@@H]21 [Mibolerone]
- luciferase activity induced by androgen (androgen receptors (AR)): luciferase activity of varying strength

Molecule: C[C@]1(O)CC[C@H]2[C@@H]3CCC4=CC(=O)CCC4=C3C=C[C@@]21C [R1881, methyltrienolone]
- concentration at which hormone activity (anabolic potency) can already be detected (androgen receptor): 10 pM

Molecule: CC#C[C@]1(O)CC[C@H]2[C@@H]3CCC4=CC(=O)CCC4=C3[C@@H](c3ccc(N(C)C)cc3)C[C@@]21C [RU 38486, mifepristone]
- blocking of luciferase inducing effect of corticosterone and 21-hemisuccinat-corticosterone:BSA (glucocorticoid antagonism) (glucocorticoid receptor [3]): extensively blocked

Molecule: C[C@]12CCC(=O)C=C1CC[C@@H]1[C@@H]2CC[C@@]2(C)[C@H]1CC[C@]2(O)C(=O)CO [cortexolone, 17α-, 21-dihydroxy-progesterone]
- glucocorticoid activity (luciferase induction) (glucocorticoid receptor [1]): significant glucocorticoid activity

Molecule: C[C@]12C[C@H](O)[C@H]3[C@@H](CCC4=CC(=O)CC[C@@]43C)[C@@H]1CC[C@@H]2C(=O)CO [corticosterone]
- glucocorticoid activity (luciferase induction) (glucocorticoid receptor [1]): very active
- response of MH 3924 cells compared with response of CC1 cells (glucocorticoid receptor [2]; as in example 7 (24 h)): distinctly more sensitive

Reference: US20040023264A1, “Method for determining the peptide hormone activities or the steroid hormone activities of a material or substance mixture” (priority 2000, published 2004)
